Experimental data from patent US8247380B2, “Alpha 1-acid glycoprotein, alpha 2-HS glycoprotein, alpha 1-antitrypsin, and fragments thereof induce apoptosis in cancer cell lines” (Ambryx Biotechnology, D.C., priority 1997, dated 2012).
No end group written: not given here.

Key:
[1] = test system: CCD-18 Co (human normal colon fibroblast); assay: Apoptosis assay, CCD-18 Co cells; type: cell-based; conditions: various concentrations of SEQ ID NO: 1
From the text: Zinc charged alpha 1-acid glycoprotein has no effect on CCD 18Co cells (human normal colon fibroblast).

[2] = test system: LNCaP (prostate cancer) cells; assay: Cell death (apoptosis) assay, LNCaP cells; type: cell-based, human; conditions: for apoptotic activity / membrane blebbing (in words): chemically synthesized peptide, three (3) hours of incubation
Description: […] The free Zinc Acetate and Barium Acetate were removed by repetitive concentration. Fetuin was tested in LNCaP and HL-60 cells. […] Fetuin (in 10 μl PBS) at concentration of 100 ng/ml was added 3-4 hours after the cells were seeded.

[3] = test system: HT-29 (human colon adenocarcinoma); assay: Apoptosis assay, HT-29 cells; conditions: for apoptotic activity / morphology (in words): 5 μM, 4 hours
Description: Prostate cancer cell line LNCAP was routinely used for the isolation of Apogen P-1 and Apogen P-2, whereas leukemia cell line HL-60 was used for the isolation of Apogen L. The methods of assays were as follows: LNCAP or HL-60 (1,000 cells) was seeded in 10 microliters RPMI containing 15% or 20% Fetal bovine serum, penicillin and streptomycin at 37 degrees, 5% CO2 in Microtray plates (25 μl wells, Robbins Scientific Corp.). The tested sample (10 μl) was added 3-4 hours after cells were seeded. After incubation of the tested sample with cells for 15 hours, two microliters of Hoechst dye (0.03 ng/ml in PBS) was added. Two hours later, cells that were stained with Hoechst dye were examined under fluorescence microscope. […] The percentage of apoptotic cells was calculated by the following equation:
The DNA condensation, DNA fragmentation and peripheral crescents of the nuclei are characteristics of a cell under apoptosis.

cancer cell lines = assay: Apoptosis assay, cancer cells (cell line not given); type: cell-based
[4] = various concentrations of SEQ ID NO: 1

Q: What does the source list for “HTFSGVASVE [SEQ ID NO: 1, H-T-F-S-G-V-A-S-V-E]”?
A: induction of apoptosis (in words) [1]: without affecting; apoptotic activity / membrane blebbing (in words) [2]: caused membrane “blebbing”; potency relative to fetuin prepared from other methods ([2]; estimate): several thousand times; potency relative to Supercharged Zinc Fetuin ([2]; estimate, see FIG. 13): eight to ten times; induction of apoptosis (in words) [2, 4]: induced apoptosis; induced apoptosis ([3]; 0.4 μM, four (4) hours): 52%; cells induced to apoptosis (in words) ([3]; 0.4 μM, six (6) hours): almost all; induction of apoptosis (in words) [3, 4]: induced apoptosis

Q: “S-A-S-G-E-A-F-H (SASGEAFH; Polypeptide fragment from treatment of fetuin from bovine sera as described in the specification.) [SEQ ID NO: 2, chemically synthesized bovine fetuin fragment, amino acid no; 310-317]” was tested. Which “apoptotic activity / membrane blebbing (in words)” value [2] did it give?
A: Its value is “did not show any apoptotic activity”.

Q: “alpha 1-acid glycoprotein (without zinc): alpha 1-acid glycoprotein pre-incubated with EDTA without recharging with zinc [reference compound]” was tested. Which “induction of apoptosis in cancer/tumor cell lines (in words)” value (cancer cell lines) did it give?
A: Its value is “failed to induce apoptosis”.

Q: What about the “apoptotic activity / morphology (in words)” value [3] of the same molecule?
A: Its value is “no apoptotic activity was seen”.

Q: “alpha 1-acid glycoprotein purchased from Sigma, after zinc charging: commercial alpha 1-acid glycoprotein after zinc charging” was tested. Which “induction of apoptosis in cancer/tumor cell lines (in words)” value (cancer cell lines) did it give?
A: Its value is “contained the same activity”.

Q: How did the “induction of apoptosis in cancer/tumor cell lines (in words)” value (cancer cell lines) turn out when “alpha 1-antitrypsin (without zinc): alpha 1-antitrypsin pre-incubated with EDTA without recharging with zinc [reference compound]” was run?
A: The value was “failed to induce apoptosis”.

Q: What about the “apoptotic activity / morphology (in words)” value [3] of the same molecule?
A: The value was “no apoptotic activity was seen”.

Q: For “calcium charged alpha 1-acid glycoprotein: alpha 1-acid glycoprotein pre-incubated with EDTA and recharged with calcium [reference compound]”, which “apoptotic activity / morphology (in words)” value [3] is on record?
A: The value was “no apoptotic activity was seen”.

Q: How did the “apoptotic activity / morphology (in words)” value [3] turn out when “calcium charged alpha 1-antitrypsin: alpha 1-antitrypsin pre-incubated with EDTA and recharged with calcium [reference compound]” was run?
A: The value was “no apoptotic activity was seen”.

B1: Fetuin purchased from Sigma: commercial fetuin prepared by ammonium sulfate precipitation and EDTA treatment (protein, UniProt P12763 19-359, looked up)
Alpha-2-HS-glycoprotein: IPLDPVAGYKEPACDDPDTEQAALAAVDYINKHLPRGYKHTLNQIDSVKVWPRRPTGEVYDIEIDTLETTCHVLDPTPLANCSVRQQTQHAVEGDCDIHVLKQDGQFSVLFTKCDSSPDSAEDVRKLCPDCPLLAPLNDSRVVHAVEVALATFNAESNGSYLQLVEISRAQFVPLPVSVSVEFAVAATDCIAKEVVDPTKCNLLAEKQYGFCKGSVIQKALGGEDVRVTCTLFQTQPVIPQPQPDGAEAEAPSAVPDAAGPTPSAAGPPVASVVVGPSVVAVPLPLHRAHYDLRHTFSGVASVESSSGEAFHVGKTPIVGQPSIPGGPVRLCPGRIRYFKI
Q: With B1 as the molecule, how does the “induction of apoptosis in cancer/tumor cell lines (in words)” value (cancer cell lines) read?
A: Its value is “very low activity”.

Q: And the “concentration at which apoptosis inducing activity was observed” value ([2]; long incubation time (2 days))?
A: Its value is > 250 µg/mL.

Q: What about the “concentration at which apoptosis was induced” value ([2]; long incubation time (2 days)) of the same molecule?
A: Its value is > 5 mM.

B2: natural fetuin: natural fetuin whose carbohydrate moiety was removed by certain enzymes (protein, UniProt P12763 19-359, looked up)
Alpha-2-HS-glycoprotein: IPLDPVAGYKEPACDDPDTEQAALAAVDYINKHLPRGYKHTLNQIDSVKVWPRRPTGEVYDIEIDTLETTCHVLDPTPLANCSVRQQTQHAVEGDCDIHVLKQDGQFSVLFTKCDSSPDSAEDVRKLCPDCPLLAPLNDSRVVHAVEVALATFNAESNGSYLQLVEISRAQFVPLPVSVSVEFAVAATDCIAKEVVDPTKCNLLAEKQYGFCKGSVIQKALGGEDVRVTCTLFQTQPVIPQPQPDGAEAEAPSAVPDAAGPTPSAAGPPVASVVVGPSVVAVPLPLHRAHYDLRHTFSGVASVESSSGEAFHVGKTPIVGQPSIPGGPVRLCPGRIRYFKI
modifications: deglycosylated
notes: natural fetuin whose carbohydrate moiety was removed by certain enzymes
Q: Which “boost of apoptotic inducing activity when carbohydrate moiety removed by certain enzymes” value (cancer cell lines) does the source give for B2 here?
A: Its value is 2-3 fold.

B3: Fetuin-Ca: fetuin bound with calcium (protein, UniProt P12763 19-359, looked up)
Alpha-2-HS-glycoprotein: IPLDPVAGYKEPACDDPDTEQAALAAVDYINKHLPRGYKHTLNQIDSVKVWPRRPTGEVYDIEIDTLETTCHVLDPTPLANCSVRQQTQHAVEGDCDIHVLKQDGQFSVLFTKCDSSPDSAEDVRKLCPDCPLLAPLNDSRVVHAVEVALATFNAESNGSYLQLVEISRAQFVPLPVSVSVEFAVAATDCIAKEVVDPTKCNLLAEKQYGFCKGSVIQKALGGEDVRVTCTLFQTQPVIPQPQPDGAEAEAPSAVPDAAGPTPSAAGPPVASVVVGPSVVAVPLPLHRAHYDLRHTFSGVASVESSSGEAFHVGKTPIVGQPSIPGGPVRLCPGRIRYFKI
modifications: calcium bound
Q: B3 was tested. Which “induction of apoptosis in cancer/tumor cell lines (in words)” value (cancer cell lines) did it give?
A: Its value is “inactive in inducing apoptosis”.

B4: E. Coli-expressed fetuin: recombinant bovine fetuin expressed in E. Coli (protein, UniProt P12763 19-359, looked up)
Alpha-2-HS-glycoprotein: IPLDPVAGYKEPACDDPDTEQAALAAVDYINKHLPRGYKHTLNQIDSVKVWPRRPTGEVYDIEIDTLETTCHVLDPTPLANCSVRQQTQHAVEGDCDIHVLKQDGQFSVLFTKCDSSPDSAEDVRKLCPDCPLLAPLNDSRVVHAVEVALATFNAESNGSYLQLVEISRAQFVPLPVSVSVEFAVAATDCIAKEVVDPTKCNLLAEKQYGFCKGSVIQKALGGEDVRVTCTLFQTQPVIPQPQPDGAEAEAPSAVPDAAGPTPSAAGPPVASVVVGPSVVAVPLPLHRAHYDLRHTFSGVASVESSSGEAFHVGKTPIVGQPSIPGGPVRLCPGRIRYFKI
modifications: expressed in E. coli
Q: How did the “apoptotic activity relative to supercharged zinc fetuin (Section 4F)” value (cancer cell lines) turn out when B4 was run?
A: The value was “about 5 times”.

B5: supercharged zinc fetuin: Section 4A fetuin stripped of ions with EDTA and reloaded with 0.5 M Zinc Acetate (protein, UniProt P12763 19-359, looked up)
Alpha-2-HS-glycoprotein: IPLDPVAGYKEPACDDPDTEQAALAAVDYINKHLPRGYKHTLNQIDSVKVWPRRPTGEVYDIEIDTLETTCHVLDPTPLANCSVRQQTQHAVEGDCDIHVLKQDGQFSVLFTKCDSSPDSAEDVRKLCPDCPLLAPLNDSRVVHAVEVALATFNAESNGSYLQLVEISRAQFVPLPVSVSVEFAVAATDCIAKEVVDPTKCNLLAEKQYGFCKGSVIQKALGGEDVRVTCTLFQTQPVIPQPQPDGAEAEAPSAVPDAAGPTPSAAGPPVASVVVGPSVVAVPLPLHRAHYDLRHTFSGVASVESSSGEAFHVGKTPIVGQPSIPGGPVRLCPGRIRYFKI
modifications: zinc charged
notes: Section 4A fetuin stripped of ions with EDTA and reloaded with 0.5 M Zinc Acetate
Q: For B5, which “enhancement of ability to induce apoptosis versus original fetuin bound with zinc (Section 4A)” value ([2]; from LD50 on LNCaP cells incubated for 6 hours) is on record?
A: The value was “three to four times”.

B6: alpha 2-HS glycoprotein (without zinc): alpha 2-HS glycoprotein pre-incubated with EDTA without recharging with zinc (protein, UniProt P02765 19-300; P02765 341-367, looked up)
Alpha-2-HS-glycoprotein chain … 1: APHGPGLIYRQPNCDDPETEEAALVAIDYINQNLPWGYKHTLNQIDEVKVWPQQPSGELFEIEIDTLETTCHVLDPTPVARCSVRQLKEHAVEGDCDFQLLKLDGKFSVVYAKCDSSPDSAEDVRKVCQDCPLLAPLNDTRVVHAAKAALAAFNAQNNGSNFQLEEISRAQLVPLPPSTYVEFTVSGTDCVAKEATEAAKCNLLAEKQYGFCKATLSEKLGGAEVAVTCMVFQTQPVSSQPQPEGANEAVPTPVVDPDAPPSPPLGAPGLPPAGSPPDSHVL
Alpha-2-HS-glycoprotein chain … 2: TVVQPSVGAAAGPVVPPCPGRIRHFKV
modifications: EDTA treated
notes: alpha 2-HS glycoprotein pre-incubated with EDTA without recharging with zinc
Q: What does the source list for B6?
A: induction of apoptosis in cancer/tumor cell lines (in words) (cancer cell lines): fails to induce apoptosis; apoptotic activity / morphology (in words) [3]: no apoptotic activity was seen

B7: calcium charged alpha 2-HS glycoprotein: alpha 2-HS glycoprotein pre-incubated with EDTA and recharged with calcium (protein, UniProt P02765 19-300; P02765 341-367, looked up)
Alpha-2-HS-glycoprotein chain … 1: APHGPGLIYRQPNCDDPETEEAALVAIDYINQNLPWGYKHTLNQIDEVKVWPQQPSGELFEIEIDTLETTCHVLDPTPVARCSVRQLKEHAVEGDCDFQLLKLDGKFSVVYAKCDSSPDSAEDVRKVCQDCPLLAPLNDTRVVHAAKAALAAFNAQNNGSNFQLEEISRAQLVPLPPSTYVEFTVSGTDCVAKEATEAAKCNLLAEKQYGFCKATLSEKLGGAEVAVTCMVFQTQPVSSQPQPEGANEAVPTPVVDPDAPPSPPLGAPGLPPAGSPPDSHVL
Alpha-2-HS-glycoprotein chain … 2: TVVQPSVGAAAGPVVPPCPGRIRHFKV
modifications: calcium charged
Q: Which “apoptotic activity / morphology (in words)” value [3] does the source give for B7 here?
A: The value was “no apoptotic activity was seen”.
